Results as given in the NIST ThermoML archive (doi:10.1021/je301283e).

Conditions: Liquid, Vibrating tube method

CCCCCCC [heptane]
mass density [kg/m3]
Conditions	313.15 K	333.15 K	353.15 K	373.15 K	393.15 K
340 kPa	667.1	649.7	631.8	613.1	593.4
690 kPa	667.5	650.2	632.3	613.7	594.1
1030 kPa	667.8	650.6	632.8	614.3	594.9
1380 kPa	668.2	651	633.3	614.9	595.6
1720 kPa	668.64	651.4	633.9	615.5	596.3
2070 kPa	669	651.9	634.4	616.1	597
2410 kPa	669.3	652.3	634.9	616.7	597.8
2760 kPa	669.8	652.7	635.3	617.3	598.5
3100 kPa	670.1	653.2	635.8	618.2	599.2
3450 kPa	670.4	653.6	636.3	618.5	599.9
3800 kPa	670.8	654	636.8	619	600.5
4140 kPa	671.2	654.4	637.3	619.6	601.2
4480 kPa	671.6	654.8	637.7	620.2	601.9
4830 kPa	671.9	655.2	638.2	620.7	602.5
5170 kPa	672.2	655.6	638.7	621.2	603.2
5510 kPa	672.6	656	639.2	621.8	603.8
5860 kPa	672.9	656.4	639.6	622.3	604.4
6200 kPa	673.3	656.8	640.1	622.9	605.1
6550 kPa	673.6	657.2	640.6	623.4	605.7
6890 kPa	674	657.6	641	623.9	606.3
7240 kPa	674.3	658	641.5	624.4	606.9
7580 kPa	–	658.4	641.9	625	607.5
7930 kPa	–	658.8	642.3	625.5	608.1
8270 kPa	–	659.2	642.8	626	608.7
8620 kPa	–	–	643.2	626.5	609.3
8960 kPa	–	–	643.9	627	609.9
9310 kPa	–	–	644.1	627.5	610.8
9650 kPa	–	–	644.5	628	611.1

CCCCCCCCCCCCCCCC [hexadecane]
mass density [kg/m3]
Conditions	313.15 K	333.15 K	353.15 K	373.15 K	393.15 K
340 kPa	759.52	746.8	736.2	723.1	710
690 kPa	759.83	747.1	736.4	723.3	710.3
1030 kPa	760.08	747.4	736.6	723.6	710.6
1380 kPa	760.33	747.7	736.9	723.8	710.9
1720 kPa	760.65	748	737.1	724	711.1
2070 kPa	760.88	748.2	737.4	724.3	711.4
2410 kPa	761.08	748.5	737.7	724.6	711.7
2760 kPa	761.33	748.7	738	724.9	712
3100 kPa	761.65	749	738.3	725.1	712.2
3450 kPa	761.83	749.2	738.7	725.4	712.3
3800 kPa	762.08	749.5	739.1	725.6	712.5
4140 kPa	762.33	749.8	739.3	725.9	712.8
4480 kPa	762.49	750	739.5	726.1	713
4830 kPa	762.83	750.2	739.8	726.4	713.3
5170 kPa	763.08	750.5	740	726.7	713.5
5510 kPa	763.33	750.7	740.2	726.9	713.8
5860 kPa	763.58	751	740.4	727.2	714
6200 kPa	763.83	751.2	740.5	727.5	714.3
6550 kPa	764.08	751.4	740.7	727.8	714.6
6890 kPa	764.33	751.6	741	728.1	714.9
7240 kPa	764.65	752	741.2	728.4	715.1
7580 kPa	764.83	752.4	741.5	728.5	715.3
7930 kPa	765.08	752.6	741.7	728.9	715.5
8270 kPa	765.33	752.8	742	729.4	715.8
8620 kPa	765.58	753	742.2	729.9	716
8960 kPa	765.74	753.2	742.5	730.2	716.3
9310 kPa	765.99	753.5	742.7	730.6	716.6
9650 kPa	766.24	753.8	742.9	730.8	716.8
10000 kPa	766.49	754	743.1	731	717.1
10340 kPa	766.74	754.3	743.5	731.4	717.4
10690 kPa	766.98	754.5	743.9	731.6	717.6
11030 kPa	767.22	754.8	744.1	731.9	717.9
11380 kPa	767.48	755	744.3	732.1	718.1
